In the Kinase Knowledgebase extract (Sharma et al. 2016):

target: PIK3CG (human) (UniProt P48736); experiment: Assessment of PIK3CG Kinase Activity
Sequence (P48736 whole entry, looked up): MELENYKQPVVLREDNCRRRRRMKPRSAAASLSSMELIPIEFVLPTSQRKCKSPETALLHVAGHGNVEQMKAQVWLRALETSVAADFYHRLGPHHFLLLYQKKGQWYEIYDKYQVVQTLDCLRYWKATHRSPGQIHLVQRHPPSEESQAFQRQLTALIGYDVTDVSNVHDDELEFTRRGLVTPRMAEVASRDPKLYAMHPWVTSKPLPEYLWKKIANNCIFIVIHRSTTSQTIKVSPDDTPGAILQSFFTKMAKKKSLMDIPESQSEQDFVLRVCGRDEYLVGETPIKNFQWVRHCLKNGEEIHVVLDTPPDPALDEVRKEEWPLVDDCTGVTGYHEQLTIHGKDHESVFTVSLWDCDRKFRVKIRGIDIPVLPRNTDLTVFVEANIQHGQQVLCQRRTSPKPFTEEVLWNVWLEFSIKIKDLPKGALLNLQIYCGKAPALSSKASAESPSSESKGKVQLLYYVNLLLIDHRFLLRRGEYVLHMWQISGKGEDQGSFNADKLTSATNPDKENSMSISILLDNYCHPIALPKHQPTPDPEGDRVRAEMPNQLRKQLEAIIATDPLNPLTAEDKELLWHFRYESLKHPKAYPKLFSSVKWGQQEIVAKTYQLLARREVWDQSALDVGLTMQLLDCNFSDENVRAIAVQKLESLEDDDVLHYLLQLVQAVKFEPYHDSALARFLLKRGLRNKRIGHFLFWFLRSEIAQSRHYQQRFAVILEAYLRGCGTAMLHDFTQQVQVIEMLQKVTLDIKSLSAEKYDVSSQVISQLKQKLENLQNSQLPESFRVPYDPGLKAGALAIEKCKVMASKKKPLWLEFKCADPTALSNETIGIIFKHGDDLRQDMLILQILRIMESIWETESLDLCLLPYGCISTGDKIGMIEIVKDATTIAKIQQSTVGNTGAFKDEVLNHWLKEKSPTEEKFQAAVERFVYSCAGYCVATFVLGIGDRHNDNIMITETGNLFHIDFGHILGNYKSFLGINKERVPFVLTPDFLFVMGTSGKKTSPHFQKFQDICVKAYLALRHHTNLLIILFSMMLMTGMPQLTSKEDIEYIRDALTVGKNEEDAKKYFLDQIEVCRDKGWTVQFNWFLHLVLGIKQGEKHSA

IC50, < 600 nM:
CC(=O)Nc1nc2c(s1)-c1nc(-c3cc(C#CCNC(=O)CC(C)(C)C)ccc3Cl)ncc1CC2, CCS(=O)(=O)NCC#Cc1ccc(Cl)c(-c2ncc3c(n2)-c2sc(NC(C)=O)nc2CC3)c1, CC(=O)Nc1nc2c(s1)-c1nc(-c3cc(C#CC4(O)CCC(C)(C)CC4)ccc3Cl)ncc1CC2, COC1(C#Cc2ccc(Cl)c(-c3ncc4c(n3)-c3sc(NC(C)=O)nc3CC4)c2)CCCCC1, CC(=O)Nc1nc2c(s1)-c1nc(-c3cc(C#CC4CCN(C(=O)NC5CCCC5)CC4)ccc3Cl)ncc1CC2, CC(=O)Nc1nc2c(s1)-c1nc(-c3cc(C#CC4CCN(C(=O)CC5CCCC5)CC4)ccc3Cl)ncc1CC2, CC(=O)Nc1nc2c(s1)-c1nc(-c3cc(C#CCOC4CCN(C(C)=O)CC4)ccc3Cl)ncc1CC2, CC(=O)Nc1nc2c(s1)-c1nc(-c3cc(C#CCCCN(C)C)ccc3Cl)ncc1CC2, CC(=O)Nc1nc2c(s1)-c1nc(-c3cc(C#CCNCc4ncccc4C)ccc3Cl)ncc1CC2, CC(=O)Nc1nc2c(s1)-c1nc(-c3cc(C#CC4CCN(C(=O)NCC5CCCCC5)CC4)ccc3Cl)ncc1CC2, COC1(C#Cc2ccc(Cl)c(-c3ncc4c(n3)-c3sc(NC(C)=O)nc3CC4)c2)CCN(C)CC1, CCC(N)(C#Cc1ccc(Cl)c(-c2ncc3c(n2)-c2sc(NC(C)=O)nc2CC3)c1)CC, CC(=O)Nc1nc2c(s1)-c1nc(-c3cc(C#CCCO)ccc3Cl)ncc1CC2, COC1(C#Cc2ccc(Cl)c(-c3ncc4c(n3)-c3sc(NC(C)=O)nc3CC4)c2)CCN(C2CCCC2)CC1, CC(=O)Nc1nc2c(s1)-c1nc(-c3cc(C#CCNS(=O)(=O)N4CCCC4)ccc3Cl)ncc1CC2, CC(=O)Nc1nc2c(s1)-c1nc(-c3cc(C#CCN(C)C(C)=O)ccc3Cl)ncc1CC2, CC(=O)Nc1nc2c(s1)-c1nc(-c3cc(C#CCNC(=O)CC4CCCC4)ccc3Cl)ncc1CC2, CC(=O)Nc1nc2c(s1)-c1nc(-c3cc(C#CC4(O)CCN(C(C)C)CC4)ccc3Cl)ncc1CC2, CC(=O)Nc1nc2c(s1)-c1nc(-c3cc(C#CCN(C)S(=O)(=O)N4CCCC4)ccc3Cl)ncc1CC2, CC(=O)Nc1nc2c(s1)-c1nc(-c3cc(C#CC4CCN(S(=O)(=O)C5CC5)CC4)ccc3Cl)ncc1CC2, CC(=O)Nc1nc2c(s1)-c1nc(-c3cc(C#CCNS(=O)(=O)c4ccoc4)ccc3Cl)ncc1CC2, CC(=O)Nc1nc2c(s1)-c1nc(-c3cc(C#CC4CCN(C(=O)C5CCCC5)CC4)ccc3Cl)ncc1CC2, CC(=O)Nc1nc2c(s1)-c1nc(-c3cc(C#C[C@H]4CCCN4)ccc3Cl)ncc1CC2, CC(=O)Nc1nc2c(s1)-c1nc(-c3cc(C#CCN4CCN(C)CC4)ccc3Cl)ncc1CC2, CC(=O)Nc1nc2c(s1)-c1nc(-c3cc(C#CC4(N5CCCC5)CCCCC4)ccc3Cl)ncc1CC2, CC(=O)Nc1nc2c(s1)-c1nc(-c3cc(C#CC4(N(C)C)CCCCC4)ccc3Cl)ncc1CC2, CC(=O)Nc1nc2c(s1)-c1nc(-c3cc(C#CCCCN4CCCC4)ccc3Cl)ncc1CC2, CC(=O)Nc1nc2c(s1)-c1nc(-c3cc(C#CCN(C)C)ccc3Cl)ncc1CC2, CC(=O)Nc1nc2c(s1)-c1nc(-c3cc(C#CCNC(=O)CCC(C)C)ccc3Cl)ncc1CC2, CC(=O)Nc1nc2c(s1)-c1nc(-c3cccc(C#CCNC(=O)C4CCN(C)CC4)c3)ncc1CC2, CC(=O)Nc1nc2c(s1)-c1nc(-c3cc(C#CCNS(C)(=O)=O)ccc3Cl)ncc1CC2, CNC(=O)NC1(C#Cc2ccc(Cl)c(-c3ncc4c(n3)-c3sc(NC(C)=O)nc3CC4)c2)CCCCC1, CC(=O)Nc1nc2c(s1)-c1nc(-c3cc(C#CC4(O)CCN(C5CCCC5)CC4)ccc3Cl)ncc1CC2, CCNC1(C#Cc2ccc(Cl)c(-c3ncc4c(n3)-c3sc(NC(C)=O)nc3CC4)c2)CCCCC1, CC(=O)Nc1nc2c(s1)-c1nc(-c3cc(C#CC4CCN(C(C)=O)CC4)ccc3Cl)ncc1CC2, CC(=O)Nc1nc2c(s1)-c1nc(-c3cc(C#CCN4CCC(C(N)=O)CC4)ccc3Cl)ncc1CC2, CCN(C)S(=O)(=O)NCC#Cc1ccc(Cl)c(-c2ncc3c(n2)-c2sc(NC(C)=O)nc2CC3)c1, CC(=O)Nc1nc2c(s1)-c1nc(-c3cc(C#CCNS(=O)(=O)C4CC4)ccc3Cl)ncc1CC2, CC(=O)Nc1nc2c(s1)-c1nc(-c3cc(Cl)cc(C#CC4CCN(C5CCCC5)CC4)c3)ncc1CC2, CC(=O)Nc1nc2c(s1)-c1nc(-c3cc(C#CCN(C)S(=O)(=O)N4CCOCC4)ccc3Cl)ncc1CC2, CC(=O)Nc1nc2c(s1)-c1nc(-c3cc(C#CCNC(C)C)ccc3Cl)ncc1CC2, CC(=O)Nc1nc2c(s1)-c1nc(-c3cc(C#CC(C)(C)N)ccc3Cl)ncc1CC2, CC(=O)Nc1nc2c(s1)-c1nc(-c3cc(C#CC4(O)CCN(C(C)C)CC4)ccc3F)ncc1CC2, CNC(=O)Nc1nc2c(s1)-c1nc(-c3cc(C#CC4(O)CCN(C5CCCC5)CC4)ccc3Cl)ncc1CC2, CC(=O)Nc1nc2c(s1)-c1nc(-c3cc(Cl)cc(C#CCN(C)S(C)(=O)=O)c3)ncc1CC2, CC(=O)Nc1nc2c(s1)-c1nc(-c3cc(C#CC4CCN(C(=O)N5CCOCC5)CC4)ccc3Cl)ncc1CC2, CC(=O)Nc1nc2c(s1)-c1nc(-c3cc(C#CCNS(=O)(=O)C4CCCCC4)ccc3Cl)ncc1CC2, CC(=O)Nc1nc2c(s1)-c1nc(-c3cc(C#CCNC(=O)CN(C)C)ccc3Cl)ncc1CC2, CC(=O)Nc1nc2c(s1)-c1nc(-c3cc(C#CC4(O)CCN(C)CC4)ccc3Cl)ncc1CC2, CC(=O)Nc1nc2c(s1)-c1nc(-c3cc(C#CCNS(=O)(=O)c4ccccc4)ccc3Cl)ncc1CC2, CC(=O)Nc1nc2c(s1)-c1nc(-c3cc(C#CC4CCN(S(=O)(=O)C(C)C)CC4)ccc3Cl)ncc1CC2, CC(=O)Nc1nc2c(s1)-c1nc(-c3cccc(C#CC4CCN(C(C)C)CC4)c3)ncc1CC2, CC(=O)Nc1nc2c(s1)-c1nc(-c3cc(C#CCNC(=O)C4CCCCC4)ccc3Cl)ncc1CC2, CC(=O)Nc1nc2c(s1)-c1nc(-c3cc(C#Cc4ccccn4)ccc3Cl)ncc1CC2, CC(=O)Nc1nc2c(s1)-c1nc(-c3cc(C#CCN4CCC(N(C)C)CC4)ccc3Cl)ncc1CC2, CNCC#Cc1ccc(Cl)c(-c2ncc3c(n2)-c2sc(NC(C)=O)nc2CC3)c1, CCNC(=O)N1CCC(C#Cc2ccc(Cl)c(-c3ncc4c(n3)-c3sc(NC(C)=O)nc3CC4)c2)CC1, CC(=O)Nc1nc2c(s1)-c1nc(-c3cc(C#CCCCN(C)C(C)C)ccc3Cl)ncc1CC2, CCNC(=O)NCC#Cc1ccc(Cl)c(-c2ncc3c(n2)-c2sc(NC(C)=O)nc2CC3)c1, CC(=O)Nc1nc2c(s1)-c1nc(-c3cc(C#CC4(NC(C)=O)CCCCC4)ccc3Cl)ncc1CC2, CC(=O)Nc1nc2c(s1)-c1nc(-c3cc(C#CC4CCN(C(=O)N5CCCC5)CC4)ccc3Cl)ncc1CC2, COC1(C#Cc2ccc(F)c(-c3ncc4c(n3)-c3sc(NC(C)=O)nc3CC4)c2)CCCCC1, CC(=O)Nc1nc2c(s1)-c1nc(-c3cc(C#CC4(N(C)C)CCCC4)ccc3Cl)ncc1CC2, CC(=O)Nc1nc2c(s1)-c1nc(-c3cccc(C#CC4CCN(C)CC4)c3)ncc1CC2, CC(=O)Nc1nc2c(s1)-c1nc(-c3cc(C#CCCCNC(C)C)ccc3Cl)ncc1CC2, CNCC#Cc1cccc(-c2ncc3c(n2)-c2sc(NC(C)=O)nc2CC3)c1, COCC#Cc1ccc(Cl)c(-c2ncc3c(n2)-c2sc(NC(C)=O)nc2CC3)c1, CC(=O)Nc1nc2c(s1)-c1nc(-c3cc(C#CCN4CCNC(=O)C4)ccc3Cl)ncc1CC2, CC(=O)Nc1nc2c(s1)-c1nc(-c3cccc(C#CC4CCN(CC5CCCC5)CC4)c3)ncc1CC2, CC(=O)Nc1nc2c(s1)-c1nc(-c3cccc(C#CC4(O)CCN(C5CCCC5)CC4)c3)ncc1CC2, CC(=O)Nc1nc2c(s1)-c1nc(-c3cc(C#CCN4CCCC4)ccc3Cl)ncc1CC2, CC(=O)Nc1nc2c(s1)-c1nc(-c3cc(C#CC4CCN(C(=O)NC(C)C)CC4)ccc3Cl)ncc1CC2, CC(=O)Nc1nc2c(s1)-c1nc(-c3cc(C#CCC4CCCC4)ccc3Cl)ncc1CC2, CC(=O)Nc1nc2c(s1)-c1nc(-c3cc(C#CCNC(=O)NCC4CCCCC4)ccc3Cl)ncc1CC2, CC(=O)Nc1nc2c(s1)-c1nc(-c3cc(C#CCN(C)S(=O)(=O)C4CC4)ccc3Cl)ncc1CC2, COC1CCN(S(=O)(=O)NCC#Cc2ccc(Cl)c(-c3ncc4c(n3)-c3sc(NC(C)=O)nc3CC4)c2)CC1, CC(=O)Nc1nc2c(s1)-c1nc(-c3cc(C#CCN)ccc3Cl)ncc1CC2, CC(=O)Nc1nc2c(s1)-c1nc(-c3cc(C#CCNCC4CC4)ccc3Cl)ncc1CC2
